Experimental data: patent US20190307783A1, “USE OF ANTIVIRALS TO INHIBIT PROTOZOAN VIRUSES” (priority 2016, published 2019)
“Also recorded” adds a separate entry of the source.

Molecular target: Lgy LRV1 RDRP (Leishmania RNA virus 1 - 4, UniProt Q02382)
Assay: RDRP assay of purified virions, [α-32P]UTP incorporation
Type: biochemical, Leishmania RNA virus 1 (Lgy strain M4147)
Details: concentrations up to 1000 μM; listed as 2CMA
Method: RDRP assays were carried out with LRV1 virions purified from Lgy strain M4147 by an established cesium chloride (CsCl) equilibrium ultracentrifugation procedure {Widmer, 1989; Widmer, 1990}. Following separation, virus particles were detected and quantified by their reactivity with an anti-capsid antibody (FIG. 21). We reproducibly observed three overlapping ‘peaks’, designated low-, medium-, and high-density (LD, MD and HD) in order of increasing density. […] The densities of the Lgy LRV1 LD, MD and HD peaks were 1.29, 1.36 and 1.41 g/mL, in good agreement with the densities of L-A virus particles bearing ssRNA- and dsRNA- (1.31 and 1.41 g/mL, respectively) {Esteban, 1986}. […]
To measure RDRP activity, purified virions were allowed to incorporate [α-^32P]UTP in the presence of the remaining nucleoside triphosphates for 1 hour, a time chosen to allow one round of transcription or replication of the viral genome {Widmer, 1990}. RNA was purified and separated by native gel electrophoresis, and the products were visualized and quantified. […]
RDRP activity of purified virions was measured using an [α-^32P]UTP incorporation assay described previously{Widmer, 1990}. […] The standards lane was excised and stained with ethidium bromide, while the radiolabeled products were detected by exposing an imaging plate for 24 hours and reading it with a FLA-5100 phosphoimager (Fujifilm, Tokyo, Japan). […]

Lgy LRV1 RDRP, sequence (Q02382 whole entry): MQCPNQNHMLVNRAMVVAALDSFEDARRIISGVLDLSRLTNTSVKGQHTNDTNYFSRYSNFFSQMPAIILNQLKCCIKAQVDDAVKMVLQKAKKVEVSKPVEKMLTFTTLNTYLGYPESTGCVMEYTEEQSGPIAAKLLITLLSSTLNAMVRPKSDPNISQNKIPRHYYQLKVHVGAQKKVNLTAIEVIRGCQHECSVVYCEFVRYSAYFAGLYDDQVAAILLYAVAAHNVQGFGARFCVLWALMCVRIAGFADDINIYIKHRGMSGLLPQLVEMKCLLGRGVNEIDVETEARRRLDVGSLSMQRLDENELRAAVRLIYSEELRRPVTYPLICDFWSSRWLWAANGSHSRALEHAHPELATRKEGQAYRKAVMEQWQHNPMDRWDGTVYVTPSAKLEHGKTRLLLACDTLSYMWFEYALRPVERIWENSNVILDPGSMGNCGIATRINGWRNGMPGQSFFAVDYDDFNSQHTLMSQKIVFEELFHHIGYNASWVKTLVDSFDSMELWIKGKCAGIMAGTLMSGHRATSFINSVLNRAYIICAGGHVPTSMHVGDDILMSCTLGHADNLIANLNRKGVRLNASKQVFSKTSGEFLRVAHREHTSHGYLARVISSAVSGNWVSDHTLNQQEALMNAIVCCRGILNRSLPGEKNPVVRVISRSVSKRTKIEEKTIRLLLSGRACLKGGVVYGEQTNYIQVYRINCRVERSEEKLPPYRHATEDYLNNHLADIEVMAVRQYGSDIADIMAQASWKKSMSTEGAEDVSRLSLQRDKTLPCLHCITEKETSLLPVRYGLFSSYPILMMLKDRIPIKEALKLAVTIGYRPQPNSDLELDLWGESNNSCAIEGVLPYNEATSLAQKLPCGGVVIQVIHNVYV

C[C@@]1(O)[C@H](O)[C@@H](CO)O[C@H]1n1cnc2c(N)ncnc21 [2′C-methyadenosine, 2′-C-methyladenosine]
Inhibition of RDRP activity, in words: did not measurably inhibit; also recorded: completely inactive
